Laboratory results published in patent US8383619B2, “Pharmaceutical compounds” (Astex Therapeutics Limited, priority 2008, dated 2013).
Structures can show the parent of a compound that is named as a salt.

Assays:
Whole blood stability = format: in vitro ADME; conditions: 1 μM, 37° C.
Text: (§1) The breakdown of a prodrug in vivo could occur in one or more of several different compartments including for example, but not limited to blood/plasma, liver, stomach, target tissue (e.g. tumour). The preferred location for optimum formation of the parent drug will depend on the disposition in vivo of the pro-drug and parent and an understanding of the optimum concentrations of each required in the circulation to maximise exposure to the active moiety in the target tissue. The potential for pro-drug molecules to deliver the active parent drug may be assessed in vitro by measuring the breakdown of a pro-drug in the presence of relevant body fluids. For the purpose of gaining a preliminary understanding of the stability of compounds of the invention to enzymatic hydrolysis in two such bodily compartments, compound turnover has been studied following incubation in whole blood and liver homogenate from mice and humans. The data obtained from these studies provide a preliminary understanding of which of the prodrugs are better able to deliver parent compound (i.e. are more rapidly broken down to parent compound) in these compartments. Further studies could also determine stability in other compartments (e.g. in the target tumours by measuring stability in tumour lysates).
For these studies, human whole blood was collected from 3 male healthy volunteers in lithium heparin tubes. The blood was pooled and stored at room temperature for a maximum of 2 hours prior to initiation of incubations. Mouse blood was collected from 70 male mice, strain: Balb/c into lithium heparin tubes and pooled.
(§2) Each incubation consisted of a volume of 1 mL. Test compound dosing solutions were then spiked into each homogenate at a final compound concentration of 1 μM. Incubations were performed in the atmosphere in a shaking water bath at 37° C.
(§3) An aliquot of incubation samples was removed into an equal volume of ice-cold acetonitrile at various time points. Samples (whole blood/homogenate+acetonitrile) were centrifuged and aliquots of the supernatant were analysed by HPLC-MS/MS.
(§4) The compound X (2,4-dihydroxy-5-isopropyl-phenyl)-[5-(4-methyl-piperazin-1-ylmethyl)-1,3-dihydro-isoindol-2-yl]-methanone) and the compounds of Examples 1 to 24 were incubated in both whole blood and liver homogenate by Quotient Bioresearch (Rushden, UK). The percentage remaining of parent compound following incubation in whole blood/liver homogenate from human and mouse are set out in the table below.

[1] = Liver homogenate stability; format: in vitro ADME; conditions: 1 μM, 37° C., 120 mins
Text: as §1
Mouse livers were obtained from 20 male mice, strain: Balb/c from stock animals. Human liver tissue was obtained from 3 individuals sourced from a UK human tissue bank. The livers were stored frozen. The livers were defrosted and then homogenised to form a homogenate of approximately 30% (w/v) in phosphate buffer, 100 mM, pH 7.4 (referred to as ‘buffer’). Homogenates were kept on ice until use.
as §2, §3, §4

SMILES	Percentage remaining Human blood (Whole blood stability; 120 mins) [%]	Percentage remaining Mouse blood (Whole blood stability; 120 mins) [%]	Percentage remaining Human Liver [1] [%]	Percentage remaining Mouse Liver [1] [%]	Percentage remaining Mouse blood (Whole blood stability; 60 mins (footnote *)) [% *]
CC(C)c1cc(C(=O)N2Cc3ccc(CN4CCN(C)CC4)cc3C2)c(OC(=O)C(C)(C)C)cc1OC(=O)C(C)(C)C [Example 24, 2,2-Dimethyl-propionic acid 5-(2,2-dimethyl-propionyloxy)-2-isopropyl-4-[5-(4-methyl-piperazin-1-ylmethyl)-1,3-dihydro-isoindole-2-carbonyl]-phenyl ester dihydrochloride]	11	0	2	0	
COc1cc(OC)c(C(C)C)cc1C(=O)N1Cc2ccc(CN3CCN(C)CC3)cc2C1 [Example 3, (5-Isopropyl-2,4-dimethoxy-phenyl)-[5-(4-methyl-piperazin-1-ylmethyl)-1,3-dihydro-isoindol-2-yl]-methanone]	107	100	79	93	
CC(C)c1cc(C(=O)N2Cc3ccc(CN4CCN(C)CC4)cc3C2)c(OC(=O)N2CCCC2)cc1O [Example 18, 2-[2-(pyrrolidin-1-ylcarbonyloxy)-4-hydroxy-5-isopropyl-benzoyl]-5-(4-methyl-piperazin-1-ylmethyl)-1,3-dihydro-isoindole]	110		65	80	103
COc1cc(O)c(C(C)C)cc1C(=O)N1Cc2ccc(CN3CCN(C)CC3)cc2C1 [Example 1, (4-Hydroxy-5-isopropyl-2-methoxy-phenyl)-[5-(4-methyl-piperazin-1-ylmethyl)-1,3-dihydro-isoindol-2-yl]-methanone]	100	104	99	104	
CCN(CC)C(=O)Oc1cc(O)c(C(=O)N2Cc3ccc(CN4CCN(C)CC4)cc3C2)cc1C(C)C [Example 15, Diethyl-carbamic acid 5-hydroxy-2-isopropyl-4-[5-(4-methyl-piperazin-1-ylmethyl)-1,3-dihydro-isoindole-2-carbonyl]-phenyl ester]	123	58	35	26	
CC(C)c1cc(C(=O)N2Cc3ccc(CN4CCN(C)CC4)cc3C2)c(OC(=O)N2CCOCC2)cc1OC(=O)N1CCOCC1 [Example 13, 2-[2,4-bis-(morpholin-4-ylcarbonyloxy)-5-isopropyl-benzoyl]-5-(4-methyl-piperazin-1-ylmethyl)-1,3-dihydro-isoindole]	76	0	0	0	
C=CCOc1cc(O)c(C(C)C)cc1C(=O)N1Cc2ccc(CN3CCN(C)CC3)cc2C1 [Example 4, (2-Allyloxy-4-hydroxy-5-isopropyl-phenyl)-[5-(4-methyl-piperazin-1-ylmethyl)-1,3-dihydro-isoindol-2-yl]-methanone]	109	106	92	63	
CCN(CC)C(=O)Oc1cc(OC(=O)N(CC)CC)c(C(C)C)cc1C(=O)N1Cc2ccc(CN3CCN(C)CC3)cc2C1 [Example 10]	108	93	56	60	
CC(C)c1cc(C(=O)N2Cc3ccc(CN4CCN(C)CC4)cc3C2)c(OC(=O)N(C)C)cc1O [Example 16, dimethyl-carbamic acid 5-hydroxy-4-isopropyl-2-[5-(4-methyl-piperazin-1-ylmethyl)-1,3-dihydro-isoindole-2-carbonyl]-phenyl ester]	104	91	73	82	
CC(C)c1cc(C(=O)N2Cc3ccc(CN4CCN(C)CC4)cc3C2)c(O)cc1OC(=O)N1CCCC1 [Example 19, 2-[4-(pyrrolidin-1-ylcarbonyloxy)-2-hydroxy-5-isopropyl-benzoyl]-5-(4-methyl-piperazin-1-ylmethyl)-1,3-dihydro-isoindole]	102		0	0	79
CC(C)c1cc(C(=O)N2Cc3ccc(CN4CCN(C)CC4)cc3C2)c(O)cc1OC(=O)N1CCOCC1 [Example 21, 2-[4-(morpholin-4-ylcarbonyloxy)-2-hydroxy-5-isopropyl-benzoyl]-5-(4-methyl-piperazin-1-ylmethyl)-1,3-dihydro-isoindole]	82	0	0	0	
COCOc1cc(OCOC)c(C(C)C)cc1C(=O)N1Cc2ccc(CN3CCN(C)CC3)cc2C1 [Example 9, [5-Isopropyl-2,4-bis-(methoxymethyloxy)-phenyl]-[5-(4-methyl-piperazin-1-ylmethyl)-1,3-dihydro-isoindol-2-yl]-methanone]	111		98	82	105
COCOc1cc(O)c(C(C)C)cc1C(=O)N1Cc2ccc(CN3CCN(C)CC3)cc2C1 [Example 7, [4-Hydroxy-5-isopropyl-2-(methoxymethyloxy)-phenyl]-[5-(4-methyl-piperazin-1-ylmethyl)-1,3-dihydro-isoindol-2-yl]-methanone]	109		92	115	104
CC(C)c1cc(C(=O)N2Cc3ccc(CN4CCN(C)CC4)cc3C2)c(OC(=O)OC(C)(C)C)cc1OC(=O)OC(C)(C)C [Example 23, Carbonic acid 5-tert-butoxycarbonyloxy-4-isopropyl-2-[5-(4-methyl-piperazin-1-ylmethyl)-1,3-dihydro-isoindole-2-carbonyl]-phenyl ester tert-butyl ester]	26	0	1	0	
CC(C)c1cc(C(=O)N2Cc3ccc(CN4CCN(C)CC4)cc3C2)c(O)cc1O [Compound X, (2,4-dihydroxy-5-isopropyl-phenyl)-[5-(4-methyl-piperazin-1-ylmethyl)-1,3-dihydro-isoindol-2-yl]-methanone]	100	102	94	112	
CC(C)c1cc(C(=O)N2Cc3ccc(CN4CCN(C)CC4)cc3C2)c(OC(=O)N2CCCC2)cc1OC(=O)N1CCCC1 [Example 12, 2-[2,4-bis-(pyrrolidin-1-ylcarbonyloxy)-5-isopropyl-benzoyl]-5-(4-methyl-piperazin-1-ylmethyl)-1,3-dihydro-isoindole]	110	37	43	1	
